The text below walks through data of US7696177B2, “Anti-hypercholesterolemic compounds” (Merck Sharp & Dohme Corp., priority 2005, dated 2010).

In this assay the test system is cholesterol absorption. The assay is described as follows: Cholesterol Absorption Assay in Mice. It is filed as in vivo, C57BL/6 male mice. To be noted: at the highest dose tested; oral dosing 0.12-10 mg/kg, [3H]-cholesterol counts in liver and plasma 5 h later. As to the method:
Compounds of this invention were determined to inhibit cholesterol absorption employing the Cholesterol Absorption Assay in Mice, below. This assay involves comparing a test compound to ezetimibe with respect to their ability to inhibit cholesterol absorption in mice.
Cholesterol Absorption Assay in Mice:
C57BL/6 male mice (n=6/group), aged 10-14 weeks, were dosed orally with 0.2 ml 0.25% methyl cellulose solution with or without test compound or ezetimibe (0.12-10 mg/kg). Thirty minutes later all of the mice were dosed orally with 0.2 ml […]™ containing 2 μCi [^3H]-cholesterol per mouse. Five hours later, the animals were euthanized, and liver and blood were collected. Cholesterol counts in liver and plasma were determined, and percent inhibition of cholesterol absorption was calculated.

Regarding `O=C1[C@H](CC[C@H](O)c2ccc(F)cc2)[C@@H](c2ccc(O)cc2)N1c1ccc(F)cc1` [ezetimibe], the “inhibition of cholesterol absorption” value is recorded as greater than 90%.
